Active and inactive are the calls of the source.
Legend:
[1] = biological target: T1, Estrogen receptor (Homo sapiens, UniProt P03372);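 also: potency for inhibiting coactivator peptide recruitment to the receptor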
T1 sequence (P03372 whole entry): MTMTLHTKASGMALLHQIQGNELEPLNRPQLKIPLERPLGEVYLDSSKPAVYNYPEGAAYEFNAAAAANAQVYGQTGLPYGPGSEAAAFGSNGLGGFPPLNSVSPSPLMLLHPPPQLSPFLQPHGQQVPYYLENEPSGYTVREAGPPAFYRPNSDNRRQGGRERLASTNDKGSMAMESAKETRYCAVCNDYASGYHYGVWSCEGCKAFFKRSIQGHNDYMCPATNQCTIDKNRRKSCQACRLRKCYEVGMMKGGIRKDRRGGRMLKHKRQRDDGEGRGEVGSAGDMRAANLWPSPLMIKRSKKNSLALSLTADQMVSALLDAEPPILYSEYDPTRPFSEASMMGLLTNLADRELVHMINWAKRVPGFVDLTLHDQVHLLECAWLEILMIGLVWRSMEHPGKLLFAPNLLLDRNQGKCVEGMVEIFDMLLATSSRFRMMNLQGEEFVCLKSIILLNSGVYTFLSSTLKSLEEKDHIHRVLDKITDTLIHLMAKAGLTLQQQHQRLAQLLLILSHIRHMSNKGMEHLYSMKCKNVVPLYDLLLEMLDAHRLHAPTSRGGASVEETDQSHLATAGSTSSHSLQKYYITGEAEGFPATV

[2] = biological target: T2, Corticotropin-releasing factor receptor 2/Corticotropin-releasing factor-binding protein (Homo sapiens, UniProt P24387+Q13324); experiment: activators of CRF receptor 2 with binding protein – uHTS hits, confirmation (AID 602473); type: functional; settings: read-out: EC50_Mean
T2 sequence (Q13324 whole entry): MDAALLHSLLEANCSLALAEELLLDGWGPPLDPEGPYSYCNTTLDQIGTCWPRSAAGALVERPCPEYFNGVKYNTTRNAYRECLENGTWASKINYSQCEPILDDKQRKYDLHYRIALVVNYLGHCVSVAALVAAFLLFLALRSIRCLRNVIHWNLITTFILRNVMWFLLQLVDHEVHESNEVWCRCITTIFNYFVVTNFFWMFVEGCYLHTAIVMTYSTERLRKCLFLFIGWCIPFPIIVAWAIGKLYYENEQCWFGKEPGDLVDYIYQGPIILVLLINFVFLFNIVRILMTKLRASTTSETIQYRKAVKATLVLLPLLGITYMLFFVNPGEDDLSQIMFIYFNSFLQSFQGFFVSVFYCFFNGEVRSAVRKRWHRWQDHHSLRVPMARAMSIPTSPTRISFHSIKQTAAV
T2 sequence (P24387 whole entry): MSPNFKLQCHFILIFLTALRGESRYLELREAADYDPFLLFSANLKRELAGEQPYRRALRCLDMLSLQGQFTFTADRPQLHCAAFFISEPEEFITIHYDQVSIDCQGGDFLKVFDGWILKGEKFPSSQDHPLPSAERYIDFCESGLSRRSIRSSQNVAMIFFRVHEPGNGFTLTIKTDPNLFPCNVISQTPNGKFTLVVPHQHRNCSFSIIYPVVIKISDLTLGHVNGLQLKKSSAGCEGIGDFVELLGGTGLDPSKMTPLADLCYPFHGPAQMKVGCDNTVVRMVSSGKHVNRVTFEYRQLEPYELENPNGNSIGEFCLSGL

[3] = biological target: T3, Leucine aminopeptidase (Plasmodium falciparum 3D7, UniProt Q8IL11); experiment: P. falciparum M17LAP inhibitors, primary screen, biochemical, fluorogenic H-Leu-NHMec substrate, 1536-well (AID 1619); type: functional
T3 sequence (Q8IL11 whole entry): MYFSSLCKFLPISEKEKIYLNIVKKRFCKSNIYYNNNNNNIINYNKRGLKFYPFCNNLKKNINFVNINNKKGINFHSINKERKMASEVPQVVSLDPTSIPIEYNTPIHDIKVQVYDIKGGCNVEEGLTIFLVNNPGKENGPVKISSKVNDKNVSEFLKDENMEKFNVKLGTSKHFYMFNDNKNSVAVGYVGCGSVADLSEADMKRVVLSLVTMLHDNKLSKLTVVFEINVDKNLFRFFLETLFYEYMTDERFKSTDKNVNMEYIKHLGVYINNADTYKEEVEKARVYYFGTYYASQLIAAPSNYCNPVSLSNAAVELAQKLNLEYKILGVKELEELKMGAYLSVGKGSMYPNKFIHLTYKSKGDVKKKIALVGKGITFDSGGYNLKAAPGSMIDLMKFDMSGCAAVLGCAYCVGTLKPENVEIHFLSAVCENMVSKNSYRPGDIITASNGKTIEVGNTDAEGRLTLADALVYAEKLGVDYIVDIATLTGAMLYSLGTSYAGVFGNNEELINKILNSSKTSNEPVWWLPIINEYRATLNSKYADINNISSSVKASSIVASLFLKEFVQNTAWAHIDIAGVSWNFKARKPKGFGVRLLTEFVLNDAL

[4] = biological target: T4, Aspartyl aminopeptidase (Plasmodium falciparum 3D7, UniProt Q8I2J3); experiment: Counterscreen for inhibitors of M1 and M17 aminopeptidases: QFRET-based biochemical high throughput dose response assay for inhibitors of the Plasmodium falciparum M18 Aspartyl Aminopeptidase (PFM18AAP). [Related PubChem assays: 1619 (Screening assay (M17LAP inhibitors).), 1445 (Screening assay (M1AAP inhibitors).)]
T4 sequence (Q8I2J3 whole entry): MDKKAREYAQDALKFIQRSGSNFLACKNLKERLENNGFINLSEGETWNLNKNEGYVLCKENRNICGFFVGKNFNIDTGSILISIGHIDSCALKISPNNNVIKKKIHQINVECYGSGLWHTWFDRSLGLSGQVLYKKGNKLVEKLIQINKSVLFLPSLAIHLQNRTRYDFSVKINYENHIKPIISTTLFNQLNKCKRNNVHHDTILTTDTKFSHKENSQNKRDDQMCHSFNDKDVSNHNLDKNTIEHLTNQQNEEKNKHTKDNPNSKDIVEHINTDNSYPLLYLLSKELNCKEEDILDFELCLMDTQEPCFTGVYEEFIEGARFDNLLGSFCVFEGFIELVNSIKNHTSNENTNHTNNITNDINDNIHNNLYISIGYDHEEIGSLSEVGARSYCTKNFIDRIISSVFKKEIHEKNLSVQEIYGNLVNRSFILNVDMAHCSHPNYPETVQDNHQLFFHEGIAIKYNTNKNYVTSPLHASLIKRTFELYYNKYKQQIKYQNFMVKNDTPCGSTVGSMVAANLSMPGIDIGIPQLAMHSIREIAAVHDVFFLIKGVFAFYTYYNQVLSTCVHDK

[5] = biological target: Procathepsin L (Homo sapiens, UniProt P07711); experiment: cathepsin L inhibitors, dose response, counter-screen for M1/M17 aminopeptidase inhibitor project, biochemical, QFRET, 1536-well (AID 2214)
Chain of Procathepsin L (P07711 whole entry): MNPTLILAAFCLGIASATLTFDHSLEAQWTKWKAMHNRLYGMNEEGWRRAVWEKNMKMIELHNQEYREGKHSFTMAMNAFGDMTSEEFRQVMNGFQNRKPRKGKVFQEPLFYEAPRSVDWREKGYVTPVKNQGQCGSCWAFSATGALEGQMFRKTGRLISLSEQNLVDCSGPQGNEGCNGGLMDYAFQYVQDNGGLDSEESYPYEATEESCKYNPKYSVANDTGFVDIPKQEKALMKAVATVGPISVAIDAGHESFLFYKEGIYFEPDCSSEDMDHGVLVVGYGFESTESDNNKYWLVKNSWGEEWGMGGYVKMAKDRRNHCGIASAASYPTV

[6] = HEp-2 cell cytotoxicity, dose response, cytotoxicity control for RSV inhibitor project, HTS (AID 2410); type: functional; settings: human respiratory syncytial virus
[7] = biological target: T5, Aryl hydrocarbon receptor (Homo sapiens, UniProt P35869); experiment: Luminescence-based cell-based high throughput dose response assay for activators of the Aryl Hydrocarbon Receptor (AHR). [Related pubchem assays: 2796 (Primary screen (AHR activators in singlicate)), 2845 (Confirmation screen (AHR activators in triplicate)), 434939 (Counterscreen (PXR activators in triplicate)), 2804 (Summary (AHR activators))]; type: ADME
T5 sequence (P35869 whole entry): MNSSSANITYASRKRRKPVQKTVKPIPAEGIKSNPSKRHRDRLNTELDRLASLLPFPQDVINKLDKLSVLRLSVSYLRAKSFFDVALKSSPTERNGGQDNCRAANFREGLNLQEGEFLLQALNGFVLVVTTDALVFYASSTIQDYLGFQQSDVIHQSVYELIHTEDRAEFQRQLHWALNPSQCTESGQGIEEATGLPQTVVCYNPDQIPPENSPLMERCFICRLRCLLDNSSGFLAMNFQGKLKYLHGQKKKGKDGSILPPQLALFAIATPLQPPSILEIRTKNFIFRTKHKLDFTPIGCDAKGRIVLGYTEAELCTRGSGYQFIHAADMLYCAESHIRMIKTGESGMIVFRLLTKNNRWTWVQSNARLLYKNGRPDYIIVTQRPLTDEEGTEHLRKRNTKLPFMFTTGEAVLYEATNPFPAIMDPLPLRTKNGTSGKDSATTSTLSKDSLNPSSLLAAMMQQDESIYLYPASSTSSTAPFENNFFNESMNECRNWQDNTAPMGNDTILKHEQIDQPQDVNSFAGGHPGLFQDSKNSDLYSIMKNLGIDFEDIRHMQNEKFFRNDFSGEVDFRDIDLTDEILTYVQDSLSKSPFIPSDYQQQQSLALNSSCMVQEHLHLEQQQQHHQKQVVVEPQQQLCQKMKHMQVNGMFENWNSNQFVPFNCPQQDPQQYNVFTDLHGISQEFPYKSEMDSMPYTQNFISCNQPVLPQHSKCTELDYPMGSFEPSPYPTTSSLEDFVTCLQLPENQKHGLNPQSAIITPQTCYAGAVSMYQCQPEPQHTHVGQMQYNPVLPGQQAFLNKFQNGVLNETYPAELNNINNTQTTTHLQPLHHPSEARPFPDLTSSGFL

[8] = biological target: Peroxisome proliferator-activated receptor gamma/Nuclear receptor coactivator 2 (Homo sapiens, UniProt P37231); type: functional;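 also: agonist potency for raising coactivator recruitment to the receptor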
[9] = biological target: Peroxisome proliferator-activated receptor gamma/Nuclear receptor coactivator 1 (Homo sapiens, UniProt P37231); type: functional;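 also: agonist potency as compounds enhance coactivator SRC-1 recruitment to PPARgamma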
Chain of Peroxisome proliferator-activated receptor gamma/Nuclear receptor coactivator 1 (P37231 whole entry): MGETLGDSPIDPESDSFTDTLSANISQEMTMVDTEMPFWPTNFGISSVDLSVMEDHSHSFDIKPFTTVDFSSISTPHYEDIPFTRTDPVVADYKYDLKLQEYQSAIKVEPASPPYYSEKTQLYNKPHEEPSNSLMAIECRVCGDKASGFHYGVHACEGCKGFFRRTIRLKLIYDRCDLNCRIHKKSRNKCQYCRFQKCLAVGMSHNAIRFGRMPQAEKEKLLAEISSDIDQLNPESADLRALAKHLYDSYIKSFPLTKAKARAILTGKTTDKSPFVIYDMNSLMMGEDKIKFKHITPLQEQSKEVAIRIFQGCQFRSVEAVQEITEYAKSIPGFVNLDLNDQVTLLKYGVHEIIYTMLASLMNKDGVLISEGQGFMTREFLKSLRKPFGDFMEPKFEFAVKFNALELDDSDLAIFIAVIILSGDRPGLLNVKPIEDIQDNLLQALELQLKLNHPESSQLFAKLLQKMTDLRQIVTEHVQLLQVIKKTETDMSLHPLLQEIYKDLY
Chain of Peroxisome proliferator-activated receptor gamma/Nuclear receptor coactivator 1 (Q15788 whole entry, further chain): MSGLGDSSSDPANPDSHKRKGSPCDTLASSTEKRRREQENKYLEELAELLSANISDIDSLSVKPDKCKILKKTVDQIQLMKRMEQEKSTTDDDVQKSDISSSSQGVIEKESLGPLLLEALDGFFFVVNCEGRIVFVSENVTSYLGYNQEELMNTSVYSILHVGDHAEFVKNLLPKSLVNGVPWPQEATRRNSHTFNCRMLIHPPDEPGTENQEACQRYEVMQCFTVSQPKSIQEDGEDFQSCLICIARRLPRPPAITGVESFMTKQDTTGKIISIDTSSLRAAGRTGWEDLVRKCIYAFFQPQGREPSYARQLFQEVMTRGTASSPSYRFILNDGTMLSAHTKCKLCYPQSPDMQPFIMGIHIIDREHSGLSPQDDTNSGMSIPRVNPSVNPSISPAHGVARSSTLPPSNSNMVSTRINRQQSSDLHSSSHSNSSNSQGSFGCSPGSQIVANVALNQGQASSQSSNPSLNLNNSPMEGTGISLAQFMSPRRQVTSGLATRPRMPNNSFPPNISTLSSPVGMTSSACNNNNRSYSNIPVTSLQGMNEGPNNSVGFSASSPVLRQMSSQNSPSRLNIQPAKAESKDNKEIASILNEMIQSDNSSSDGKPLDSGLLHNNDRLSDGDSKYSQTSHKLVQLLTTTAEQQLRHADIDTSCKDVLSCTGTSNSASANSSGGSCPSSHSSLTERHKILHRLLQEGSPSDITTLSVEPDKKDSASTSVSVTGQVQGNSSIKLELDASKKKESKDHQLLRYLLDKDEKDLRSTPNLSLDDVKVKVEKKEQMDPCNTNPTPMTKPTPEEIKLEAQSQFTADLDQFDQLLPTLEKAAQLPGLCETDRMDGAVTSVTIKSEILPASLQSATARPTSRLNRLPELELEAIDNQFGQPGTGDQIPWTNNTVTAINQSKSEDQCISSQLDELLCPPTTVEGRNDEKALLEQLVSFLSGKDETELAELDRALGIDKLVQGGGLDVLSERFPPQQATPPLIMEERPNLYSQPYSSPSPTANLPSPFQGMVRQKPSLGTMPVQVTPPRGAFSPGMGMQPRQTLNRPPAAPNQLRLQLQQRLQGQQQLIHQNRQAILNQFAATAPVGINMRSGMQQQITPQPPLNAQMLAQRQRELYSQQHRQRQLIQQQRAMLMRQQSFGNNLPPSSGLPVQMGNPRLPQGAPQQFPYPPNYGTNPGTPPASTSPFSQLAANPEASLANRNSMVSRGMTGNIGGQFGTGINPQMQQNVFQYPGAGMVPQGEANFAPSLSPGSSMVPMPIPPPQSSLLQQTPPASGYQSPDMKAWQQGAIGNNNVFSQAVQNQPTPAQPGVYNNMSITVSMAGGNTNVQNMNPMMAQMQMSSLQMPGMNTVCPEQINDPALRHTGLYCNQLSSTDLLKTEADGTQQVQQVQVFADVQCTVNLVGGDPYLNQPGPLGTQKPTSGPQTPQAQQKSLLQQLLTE

[10] = biological target: Peroxisome proliferator-activated receptor gamma/Nuclear receptor coactivator 3 (Homo sapiens, UniProt P37231); type: functional;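 also: agonist potency for raising coactivator recruitment to the receptor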
[11] = biological target: Prothrombin (Homo sapiens, UniProt P00734); experiment: Thrombin 1536 HTS Dose Response Confirmation. [Related pubchem assays: 1046 (Thrombin 1536 HTS; hits were confirmed in this assay)]; type: functional
[12] = A cytotoxicity screen of small molecule inhibitors of the PhoP region in Salmonella typhi identified in the primary screen. [Related pubchem assays: 1850, 1864, 1985 ]; type: functional
[13] = biological target: T6, Estrogen receptor beta (Homo sapiens, UniProt Q92731);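 also: recombinant ER-beta bound to coactivator SRC1 peptide in presence of estradiol agonist; inhibitors block coactivator peptide binding and lower the FRET signal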
T6 sequence (Q92731 whole entry): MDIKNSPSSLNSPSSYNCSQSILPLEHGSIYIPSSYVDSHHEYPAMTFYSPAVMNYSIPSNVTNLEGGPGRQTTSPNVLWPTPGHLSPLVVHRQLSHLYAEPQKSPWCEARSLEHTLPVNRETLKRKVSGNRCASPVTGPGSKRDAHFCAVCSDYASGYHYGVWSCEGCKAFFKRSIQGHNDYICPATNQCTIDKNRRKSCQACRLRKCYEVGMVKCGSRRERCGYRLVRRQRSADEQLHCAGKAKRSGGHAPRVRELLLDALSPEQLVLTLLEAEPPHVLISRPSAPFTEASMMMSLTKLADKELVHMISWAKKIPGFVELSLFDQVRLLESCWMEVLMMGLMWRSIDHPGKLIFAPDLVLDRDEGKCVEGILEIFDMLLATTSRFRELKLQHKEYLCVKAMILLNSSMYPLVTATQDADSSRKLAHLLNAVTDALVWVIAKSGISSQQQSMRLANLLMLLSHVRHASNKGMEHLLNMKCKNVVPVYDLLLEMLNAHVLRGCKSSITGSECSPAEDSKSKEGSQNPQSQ

[14] = inhibitors of intracellular T. cruzi replication, confirmation, NIH3T3 host cells, beta-gal luminescence (AID 2044); type: functional, cell-based;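 also: intracellular parasites grown in NIH/3T3 mouse fibroblasts as host cells; luminescent beta-galactosidase reporter signal from transgenic T. cruzi replicating inside host cells; inhibitors lower the luminescence signal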
[15] = microbe, parasite or virus in culture; type: functional; settings: Mycobacterium tuberculosis
[16] = cytotoxicity toward NIH3T3 fibroblasts, dose response, counter-screen, cell-based, ATP luminescence, mouse fibroblasts (AID 2010); type: functional;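 also: cells exposed to compound for about 90 hours before reading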
[17] = cells; type: functional
[18] = cells
[19] = biological target: Cytochrome P450 2D6 (Homo sapiens, UniProt P10635); experiment: qHTS Assay for Inhibitors and Substrates of Cytochrome P450 2D6. [Related pubchem assays: 410 ]; type: ADME; settings: read-out: Potency
Chain of Cytochrome P450 2D6 (P10635 whole entry): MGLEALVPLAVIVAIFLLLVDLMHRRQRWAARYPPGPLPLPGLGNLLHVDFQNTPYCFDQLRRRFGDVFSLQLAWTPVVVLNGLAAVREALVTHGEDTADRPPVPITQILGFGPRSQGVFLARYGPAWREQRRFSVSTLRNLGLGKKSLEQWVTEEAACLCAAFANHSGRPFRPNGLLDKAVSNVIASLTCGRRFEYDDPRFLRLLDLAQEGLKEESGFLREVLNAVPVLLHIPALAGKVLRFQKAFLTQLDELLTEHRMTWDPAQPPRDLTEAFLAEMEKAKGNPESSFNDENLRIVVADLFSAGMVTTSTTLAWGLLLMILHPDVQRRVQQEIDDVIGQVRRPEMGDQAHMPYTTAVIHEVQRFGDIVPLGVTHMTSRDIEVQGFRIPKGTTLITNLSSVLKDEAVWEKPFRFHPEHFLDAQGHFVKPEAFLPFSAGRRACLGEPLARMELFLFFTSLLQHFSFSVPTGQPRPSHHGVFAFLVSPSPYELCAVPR

[20] = biological target: Cytochrome P450 3A4 (Homo sapiens, UniProt P08684); settings: Potency;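 also: confirmatory qHTS run detecting inhibitors and substrates of CYP3A4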
Chain of Cytochrome P450 3A4 (P08684 whole entry): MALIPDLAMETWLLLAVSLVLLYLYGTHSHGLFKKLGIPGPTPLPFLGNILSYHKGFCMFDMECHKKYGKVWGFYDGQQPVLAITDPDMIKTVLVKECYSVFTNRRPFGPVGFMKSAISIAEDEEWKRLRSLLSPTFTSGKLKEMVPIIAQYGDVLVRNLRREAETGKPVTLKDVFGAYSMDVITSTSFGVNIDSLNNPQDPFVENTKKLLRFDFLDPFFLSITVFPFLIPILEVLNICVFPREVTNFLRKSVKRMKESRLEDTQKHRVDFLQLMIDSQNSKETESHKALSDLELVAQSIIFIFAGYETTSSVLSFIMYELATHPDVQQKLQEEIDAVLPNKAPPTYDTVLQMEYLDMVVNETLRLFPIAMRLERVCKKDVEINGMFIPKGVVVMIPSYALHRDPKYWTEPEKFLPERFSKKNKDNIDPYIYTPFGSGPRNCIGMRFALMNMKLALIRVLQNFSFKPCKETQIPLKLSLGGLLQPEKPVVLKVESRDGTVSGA

[21] = biological target: T6, Estrogen receptor beta; experiment: ERβ–SRC-3 coactivator interaction inhibitors, confirmation, orthogonal assay, biochemical, ELISA, streptavidin-HRP readout (AID 1060)
[22] = biological target: Induced myeloid leukemia cell differentiation protein Mcl-1 (Homo sapiens, UniProt Q07820); type: functional
Chain of Induced myeloid leukemia cell differentiation protein Mcl-1 (Q07820 whole entry, the tested form may be a part): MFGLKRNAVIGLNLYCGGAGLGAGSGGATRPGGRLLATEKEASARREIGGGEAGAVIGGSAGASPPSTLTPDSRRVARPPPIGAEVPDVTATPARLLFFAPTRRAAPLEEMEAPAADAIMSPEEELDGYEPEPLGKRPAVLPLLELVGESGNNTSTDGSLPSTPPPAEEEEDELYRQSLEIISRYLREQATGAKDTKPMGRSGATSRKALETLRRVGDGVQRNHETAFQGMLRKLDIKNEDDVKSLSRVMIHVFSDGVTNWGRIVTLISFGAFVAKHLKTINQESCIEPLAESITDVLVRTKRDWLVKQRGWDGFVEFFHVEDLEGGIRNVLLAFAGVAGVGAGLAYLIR

[23] = biological target: T7, Carboxy-terminal domain RNA polymerase II polypeptide A small phosphatase 1 (Homo sapiens, UniProt Q9GZU7); experiment: inhibitors of CTDSP1, concentration-response testing, biochemical assay, absorbance-based, actives from ultra-high-throughput screening (AID 540297); type: functional
T7 sequence (Q9GZU7 whole entry): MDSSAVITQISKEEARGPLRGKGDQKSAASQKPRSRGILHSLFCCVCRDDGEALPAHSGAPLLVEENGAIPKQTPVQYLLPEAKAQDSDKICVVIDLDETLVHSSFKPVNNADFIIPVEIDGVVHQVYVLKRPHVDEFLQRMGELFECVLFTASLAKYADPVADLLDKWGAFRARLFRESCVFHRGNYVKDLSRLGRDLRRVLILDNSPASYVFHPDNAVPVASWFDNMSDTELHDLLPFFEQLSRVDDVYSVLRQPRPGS

CCOC(=O)c1cc2ccccc2n1CCN(CC)CC
IC50 [1]: > 50 µM (not active) | EC50 [2]: 6.45 µM (active)

CC1(C)Cc2c(sc(NC(=O)C3CC(Cl)=CCC3C(=O)O)c2C#N)CO1 (stereo not drawn)
IC50 [3]: 1.4 µM (active) | IC50 [4]: > 73.5 µM (not active) | IC50 [5]: > 59.6 µM (not active)

Cc1cc(C)n2cc(-c3ccc(Cl)cc3)c(C(=O)O)c2n1
CC50 [6]: 38.9 µM (active) | EC50 [7]: 0.994 µM (active)

COc1cc(OC)cc(-n2nnnc2SCC(=O)Nc2ccc(C(C)=O)cc2)c1
EC50 [8]: 5.13 µM (active) | EC50 [9]: 8.56 µM (active) | EC50 [10]: 8.1 µM (active) | IC50 [11]: > 50 µM (not active)

Cc1ccc(OCC(O)Cn2c(N)nc3c2c(=O)n(C)c(=O)n3C)cc1 (stereo not drawn)
EC50 [12]: > 50 µM (active)

O=C(Nc1ccc(Cc2ccncc2)cc1)C1CCC(N2C(=O)C3CC=CCC3C2=O)CC1 (stereo not drawn)
IC50 [1]: > 50 µM (not active) | IC50 [13]: > 50 µM (not active)

Nc1ncncc1-c1ccc(Cl)cc1
EC50 [12]: > 50 µM (active)

O=C(c1cc([N+](=O)[O-])cc([N+](=O)[O-])c1)N(Cc1nnc(-c2ccccc2Cl)o1)C1CC1
EC50 [14]: < 100 nM (active) | CC50 [15]: > 40 µM (active) | EC50 [16]: > 60 µM (not active) | IC50 [17]: 1.75 µM (active) | EC50 [18]: 68 nM (active)

CCCCc1nc2c(c3c1CC(C)OC3)CN(CCOc1ccccc1)CC2 (stereo not drawn)
AC50 [19]: 3.16 µM (inconclusive) | AC50 [20]: 3.16 µM (inconclusive)

C=CCn1c(N)cc(=O)nc1SCC(=O)Nc1ccc2ccccc2c1
IC50 [3]: 5.68 µM (active) | IC50 [4]: > 73.5 µM (not active) | IC50 [5]: > 59.6 µM (not active)

CN(C)c1ccc(CNCCC2CCOC(C)(C)C2)cc1 (stereo not drawn)
EC50 [14]: < 100 nM (active) | EC50 [16]: > 30 µM (not active) | EC50 [18]: 36 nM (active)

O=C(Nc1cccc(-c2cn3cccnc3n2)c1)c1ccc2c(c1)OCO2
IC50 [1]: 6.67 µM (active)

Nc1c(C(=O)c2ccc(Br)cc2)oc2ccccc12
EC50 [7]: 3.3 µM (active)

CCN(/N=C/c1ccc(Cl)cc1)c1cc(=O)n(C)c(=O)[nH]1
EC50 [7]: 1.12 µM (active)

Cc1ccc(/C=c2\sc3nc(-c4ccccc4Br)nn3c2=O)o1
IC50 [3]: 95.5 µM (active) | IC50 [13]: > 50 µM (not active) | IC50 [21]: 61.1 nM (not active) | IC50 [11]: > 50 µM (not active) | IC50 [22]: 3.18 µM (active) | IC50 [23]: 5.95 µM (active)

CC1=NCCc2c1[nH]c1cc(O)ccc21 [HARMALOL]
AC50 [19]: 31.6 µM (inconclusive)
